Data as given in ChEMBL document CHEMBL3872247, “Discovery of dual positive allosteric modulators (PAMs) of the metabotropic glutamate 2 receptor and CysLT1 antagonists for treating migraine headache” (Bioorg Med Chem Lett, 2017).

What was measured:
[1] = Half life in dog at 1 mg/kg, po; format: ADME, organism-based, Canis lupus familiaris; conditions: in vivo
[2] = Volume of distribution in dog at 0.5 mg/kg, iv; format: ADME, organism-based, Canis lupus familiaris; conditions: in vivo
[3] = Volume of distribution in rat at 1 mg/kg, iv; format: ADME, organism-based; conditions: in vivo
[4] = Half life in dog at 0.5 mg/kg, iv; format: ADME, organism-based, Canis lupus familiaris; conditions: in vivo
[5] = biological target: 5-hydroxytryptamine receptor 7 (Homo sapiens, UniProt P34969); assay: Displacement of [3H]LSD from human 5HT7 receptor expressed in CHO cells after 120 mins by scintillation counting method; format: cell-based
[6] = biological target: D(1A) dopamine receptor (Homo sapiens) (UniProt P21728); assay: Displacement of [3H]SCH23390 from recombinant human dopamine D1 receptor expressed in CHO cells at 10 uM measured after 60 mins by scintillation counting method; format: cell-based
[7] = biological target: Histamine H1 receptor (Homo sapiens) (UniProt P35367); assay: Displacement of [3H]pyrilamine from recombinant human histamine H1 receptor expressed in HEK293 cells at 10 uM measured after 60 mins by scintillation counting method; format: cell-based
[8] = biological target: Histamine H2 receptor (Homo sapiens) (UniProt P25021); assay: Displacement of [125I]APT from recombinant human histamine H2 receptor expressed in HEK293 cells at 10 uM measured after 120 mins by scintillation counting method; format: cell-based
Rattus norvegicus [9] = organism: Rattus norvegicus; assay: Displacement of [3H]GABA from non-selective GABA channel in rat cerebral cortex at 10 uM measured after 60 mins by scintillation counting method
[10] = Ratio of Cmax in rat to EC50 for human mGlu2 receptor expressed in hamster AV12 cells expressing EAAT1
Cytochrome P450 3A4 = Cytochrome P450 3A4 (Homo sapiens, UniProt P08684); assay: Inhibition of CYP3A4 (unknown origin); format: ADME
[11] = Ratio of drug level in brain to plasma in rat at 15 mg/kg, po; format: ADME, organism-based
[12] = biological target: Metabotropic glutamate receptor 2 (Homo sapiens, UniProt Q14416); assay: Positive allosteric modulation of recombinant human mGlu2 receptor expressed in hamster AV12 cells expressing EAAT1 assessed as potentiation of glutamate-induced intracellular calcium level measured after 24 to 48 hrs by FLIPR assay relative to glutamate; format: functional, cell-based
[13] = biological target: 5-hydroxytryptamine receptor 1F (Homo sapiens, UniProt P30939); assay: Activity at human 5HT1F receptor
[14] = Tmax in rat at 1 mg/kg, po; format: ADME, organism-based; conditions: in vivo
[15] = biological target: 5-hydroxytryptamine receptor 5A (Homo sapiens, UniProt P47898); assay: Displacement of human 5HT5A receptor expressed in HEK293 cells after 120 mins by scintillation counting method; format: cell-based
[16] = biological target: T1, Metabotropic glutamate receptor 3 (Homo sapiens, UniProt Q14832); assay: Antagonist activity at recombinant human mGlu3 receptor expressed in hamster AV12 cells expressing EAAT1 assessed as inhibition of glutamate-induced intracellular Ca2+ level measured after 24 hrs by FLIPR assay; format: functional, cell-based
[17] = Oral bioavailability in dog at 1 mg/kg; format: ADME, organism-based, Canis lupus familiaris; conditions: in vivo
hERG (KCNH2) = hERG (KCNH2) (Homo sapiens, UniProt Q12809); assay: Displacement of [3H]dofetilide from recombinant human ERG expressed in HEK293 cells measured after 60 mins by scintillation counting method; format: cell-based; conditions: HEK293 cells expressing recombinant human ERG, probe [3H]dofetilide
[18] = biological target: 5-hydroxytryptamine receptor 2A (Homo sapiens, UniProt P28223); assay: Activity at human 5HT2A receptor
[19] = biological target: Beta-1 adrenergic receptor (Homo sapiens) (UniProt P08588); assay: Displacement of [3H](-)CGP12177 from recombinant human beta1 adrenergic receptor expressed in HEK293 cells at 10 uM measured after 60 mins by scintillation counting method; format: cell-based
[20] = biological target: 5-hydroxytryptamine receptor 2B (Homo sapiens, UniProt P41595); assay: Activity at human 5T2B receptor
Cytochrome P450 2D6 = Cytochrome P450 2D6 (Homo sapiens, UniProt P10635); assay: Inhibition of CYP2D6 (unknown origin); format: ADME
[21] = biological target: 5-hydroxytryptamine receptor 2C (Homo sapiens, UniProt P28335); assay: Activity at human 5T2C receptor
[22] = biological target: T2, Metabotropic glutamate receptor 5 (Homo sapiens, UniProt P41594); assay: Agonist activity at recombinant human mGlu5 expressed in hamster AV12 cells expressing EAAT1 assessed as increase in intracellular calcium level measured after 24 hrs by FLIPR assay; format: functional, cell-based
Rattus norvegicus [23] = organism: Rattus norvegicus; assay: Displacement of [3H]flunitrazepam from Central-type benzodiazepine receptor in rat cerebral cortex at 10 uM measured after 60 mins by scintillation counting method
Cytochrome P450 2C9 = Cytochrome P450 2C9 (Homo sapiens, UniProt P11712); assay: Inhibition of CYP2C9 (unknown origin); format: ADME
[24] = Clearance in dog at 0.5 mg/kg, iv; format: ADME, organism-based, Canis lupus familiaris; conditions: in vivo
[25] = Half life in rat at 1 mg/kg, po; format: ADME, organism-based; conditions: in vivo
[26] = biological target: T1, Metabotropic glutamate receptor 3; assay: Positive allosteric modulation of recombinant human mGlu3 expressed in hamster AV12 cells expressing EAAT1 assessed as potentiation of glutamate-induced intracellular Ca2+ level measured after 24 hrs by FLIPR assay; format: functional, cell-based
[27] = Cmax in dog at 0.5 mg/kg, iv; format: ADME, organism-based, Canis lupus familiaris; parameters: dose 0.5 mg/kg, route intravenous; conditions: in vivo
[28] = biological target: T2, Metabotropic glutamate receptor 5; assay: Positive allosteric modulation of recombinant human mGlu5 expressed in hamster AV12 cells expressing EAAT1 assessed as potentiation of glutamate-induced intracellular Ca2+ level measured after 24 hrs by FLIPR assay; format: functional, cell-based
[29] = biological target: 5-hydroxytryptamine receptor 6 (Homo sapiens, UniProt P50406); assay: Displacement of [3H]LSD from human 5HT6 receptor expressed in CHO cells after 120 mins by scintillation counting method; format: cell-based
[30] = Half life in rat at 1 mg/kg, iv; format: ADME, organism-based; conditions: in vivo
[31] = biological target: 5-hydroxytryptamine receptor 1A (Homo sapiens, UniProt P08908); assay: Activity at human 5HT1A receptor
Rattus norvegicus [32] = assay: Decrease in plasma protein extravasation in fasted Harlan Sprague-Dawley rat model of migraine compound administered via oral gavage 1 hr prior to electrical stimulation of trigeminal ganglion measured after 15 mins by FITC-BSA based fluorescence assay; format: functional
[33] = biological target: Muscarinic acetylcholine receptor (Rattus norvegicus) (UniProt P08482+P08483+P08485+P08911+P10980); assay: Displacement of [3H]QNB from non-selective muscarinic receptor in rat cerebral cortex at 10 uM measured after 120 mins by scintillation counting method
Rattus norvegicus [34] = organism: Rattus norvegicus; assay: Displacement of [3H]naloxone from opioid receptor in rat cerebral cortex at 10 uM measured after 40 mins by scintillation counting method
[35] = Clearance in rat at 1 mg/kg, iv; format: ADME, organism-based; conditions: in vivo
[36] = Oral bioavailability in rat at 1 mg/kg; format: ADME, organism-based; conditions: in vivo
[37] = biological target: Metabotropic glutamate receptor 1 (Homo sapiens, UniProt Q13255); assay: Agonist activity at recombinant human mGlu1 expressed in hamster AV12 cells expressing EAAT1 assessed as increase in intracellular calcium level measured after 24 hrs by FLIPR assay; format: functional, cell-based
[38] = biological target: T1, Metabotropic glutamate receptor 3; assay: Agonist activity at recombinant human mGlu3 expressed in hamster AV12 cells expressing EAAT1 assessed as increase in intracellular calcium level measured after 24 hrs by FLIPR assay; format: functional, cell-based

T1 sequence (Q14832 whole entry): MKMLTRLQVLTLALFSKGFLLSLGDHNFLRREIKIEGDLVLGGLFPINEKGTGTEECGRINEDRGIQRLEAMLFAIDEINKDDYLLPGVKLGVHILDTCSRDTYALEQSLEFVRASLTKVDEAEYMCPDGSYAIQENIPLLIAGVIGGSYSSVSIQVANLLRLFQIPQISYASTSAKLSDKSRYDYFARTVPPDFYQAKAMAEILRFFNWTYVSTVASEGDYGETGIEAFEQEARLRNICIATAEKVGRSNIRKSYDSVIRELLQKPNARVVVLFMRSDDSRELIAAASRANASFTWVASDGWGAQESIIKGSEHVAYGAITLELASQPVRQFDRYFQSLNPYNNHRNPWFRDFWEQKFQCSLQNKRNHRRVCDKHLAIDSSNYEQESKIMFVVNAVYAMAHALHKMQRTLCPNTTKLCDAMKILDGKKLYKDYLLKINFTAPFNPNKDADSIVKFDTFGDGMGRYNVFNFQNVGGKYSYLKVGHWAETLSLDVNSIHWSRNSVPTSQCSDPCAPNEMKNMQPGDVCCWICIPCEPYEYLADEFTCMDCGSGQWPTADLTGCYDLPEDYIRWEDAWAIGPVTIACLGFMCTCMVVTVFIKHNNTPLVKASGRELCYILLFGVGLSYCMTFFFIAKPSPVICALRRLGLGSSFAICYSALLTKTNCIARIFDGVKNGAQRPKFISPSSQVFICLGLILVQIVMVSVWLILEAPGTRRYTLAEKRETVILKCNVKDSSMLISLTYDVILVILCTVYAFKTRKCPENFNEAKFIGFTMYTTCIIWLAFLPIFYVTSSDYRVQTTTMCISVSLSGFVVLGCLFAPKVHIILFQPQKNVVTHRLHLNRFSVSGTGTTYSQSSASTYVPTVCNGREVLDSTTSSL
T2 sequence (P41594 whole entry): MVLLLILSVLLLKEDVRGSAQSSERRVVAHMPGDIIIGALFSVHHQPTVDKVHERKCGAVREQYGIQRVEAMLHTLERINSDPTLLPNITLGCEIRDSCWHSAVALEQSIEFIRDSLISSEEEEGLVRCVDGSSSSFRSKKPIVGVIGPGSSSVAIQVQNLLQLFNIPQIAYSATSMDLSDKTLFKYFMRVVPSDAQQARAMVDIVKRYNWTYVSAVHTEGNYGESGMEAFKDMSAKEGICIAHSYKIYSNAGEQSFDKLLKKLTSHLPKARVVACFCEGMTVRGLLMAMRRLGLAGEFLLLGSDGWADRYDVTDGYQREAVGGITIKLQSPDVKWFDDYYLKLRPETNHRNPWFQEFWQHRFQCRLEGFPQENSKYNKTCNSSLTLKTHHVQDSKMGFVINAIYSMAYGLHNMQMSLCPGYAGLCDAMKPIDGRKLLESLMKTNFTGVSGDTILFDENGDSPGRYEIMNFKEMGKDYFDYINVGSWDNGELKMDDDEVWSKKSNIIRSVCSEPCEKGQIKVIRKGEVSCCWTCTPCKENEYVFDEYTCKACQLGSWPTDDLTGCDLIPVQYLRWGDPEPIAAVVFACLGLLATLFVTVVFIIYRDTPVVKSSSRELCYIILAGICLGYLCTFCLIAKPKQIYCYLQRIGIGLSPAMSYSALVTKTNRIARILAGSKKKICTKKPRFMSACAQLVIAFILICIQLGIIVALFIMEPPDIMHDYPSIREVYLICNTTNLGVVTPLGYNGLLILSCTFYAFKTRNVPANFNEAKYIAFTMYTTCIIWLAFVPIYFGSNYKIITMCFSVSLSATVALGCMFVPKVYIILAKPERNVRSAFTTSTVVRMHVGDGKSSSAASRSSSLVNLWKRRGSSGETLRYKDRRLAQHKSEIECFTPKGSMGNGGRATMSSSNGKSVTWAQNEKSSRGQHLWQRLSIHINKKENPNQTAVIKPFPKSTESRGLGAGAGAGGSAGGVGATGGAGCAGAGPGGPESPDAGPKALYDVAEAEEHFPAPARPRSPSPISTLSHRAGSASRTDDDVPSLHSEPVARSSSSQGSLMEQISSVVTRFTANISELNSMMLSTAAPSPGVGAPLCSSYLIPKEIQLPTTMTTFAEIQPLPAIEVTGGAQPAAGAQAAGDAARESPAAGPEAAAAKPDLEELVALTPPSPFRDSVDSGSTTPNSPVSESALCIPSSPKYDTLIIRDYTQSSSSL
5-hydroxytryptamine receptor 6, sequence (P50406 whole entry): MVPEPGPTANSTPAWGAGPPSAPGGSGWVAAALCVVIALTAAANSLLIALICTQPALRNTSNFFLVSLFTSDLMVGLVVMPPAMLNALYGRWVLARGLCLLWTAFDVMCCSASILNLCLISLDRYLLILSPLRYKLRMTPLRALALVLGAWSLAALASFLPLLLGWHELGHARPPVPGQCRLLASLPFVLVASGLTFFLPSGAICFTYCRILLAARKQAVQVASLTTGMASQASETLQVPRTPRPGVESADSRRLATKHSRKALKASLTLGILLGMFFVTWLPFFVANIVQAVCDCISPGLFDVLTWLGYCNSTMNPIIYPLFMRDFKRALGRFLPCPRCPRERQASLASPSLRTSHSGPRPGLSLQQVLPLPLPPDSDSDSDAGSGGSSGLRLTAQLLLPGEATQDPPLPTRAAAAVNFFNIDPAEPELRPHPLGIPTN
5-hydroxytryptamine receptor 5A, sequence (P47898 whole entry): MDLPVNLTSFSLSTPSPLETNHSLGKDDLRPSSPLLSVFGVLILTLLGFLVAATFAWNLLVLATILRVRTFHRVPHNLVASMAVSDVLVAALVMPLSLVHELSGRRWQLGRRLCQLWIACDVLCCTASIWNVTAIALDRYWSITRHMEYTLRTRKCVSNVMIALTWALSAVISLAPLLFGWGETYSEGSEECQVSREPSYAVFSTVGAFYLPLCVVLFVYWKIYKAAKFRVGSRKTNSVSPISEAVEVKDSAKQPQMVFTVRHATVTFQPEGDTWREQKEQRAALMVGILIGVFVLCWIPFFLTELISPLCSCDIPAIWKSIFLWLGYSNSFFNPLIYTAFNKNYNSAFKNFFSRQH
5-hydroxytryptamine receptor 2A, sequence (P28223 whole entry): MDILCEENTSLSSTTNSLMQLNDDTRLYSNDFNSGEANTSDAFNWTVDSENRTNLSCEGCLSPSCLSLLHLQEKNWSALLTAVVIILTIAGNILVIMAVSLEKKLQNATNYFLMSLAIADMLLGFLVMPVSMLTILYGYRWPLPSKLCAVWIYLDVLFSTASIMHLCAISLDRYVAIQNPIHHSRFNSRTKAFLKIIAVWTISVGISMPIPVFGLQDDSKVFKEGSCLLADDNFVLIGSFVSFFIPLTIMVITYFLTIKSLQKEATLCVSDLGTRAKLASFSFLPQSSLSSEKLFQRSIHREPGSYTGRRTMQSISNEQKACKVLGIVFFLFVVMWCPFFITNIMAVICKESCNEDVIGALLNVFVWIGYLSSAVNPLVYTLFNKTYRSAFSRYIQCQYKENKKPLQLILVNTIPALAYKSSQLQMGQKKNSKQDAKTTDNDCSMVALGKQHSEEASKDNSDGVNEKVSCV
hERG (KCNH2), sequence (Q12809 whole entry): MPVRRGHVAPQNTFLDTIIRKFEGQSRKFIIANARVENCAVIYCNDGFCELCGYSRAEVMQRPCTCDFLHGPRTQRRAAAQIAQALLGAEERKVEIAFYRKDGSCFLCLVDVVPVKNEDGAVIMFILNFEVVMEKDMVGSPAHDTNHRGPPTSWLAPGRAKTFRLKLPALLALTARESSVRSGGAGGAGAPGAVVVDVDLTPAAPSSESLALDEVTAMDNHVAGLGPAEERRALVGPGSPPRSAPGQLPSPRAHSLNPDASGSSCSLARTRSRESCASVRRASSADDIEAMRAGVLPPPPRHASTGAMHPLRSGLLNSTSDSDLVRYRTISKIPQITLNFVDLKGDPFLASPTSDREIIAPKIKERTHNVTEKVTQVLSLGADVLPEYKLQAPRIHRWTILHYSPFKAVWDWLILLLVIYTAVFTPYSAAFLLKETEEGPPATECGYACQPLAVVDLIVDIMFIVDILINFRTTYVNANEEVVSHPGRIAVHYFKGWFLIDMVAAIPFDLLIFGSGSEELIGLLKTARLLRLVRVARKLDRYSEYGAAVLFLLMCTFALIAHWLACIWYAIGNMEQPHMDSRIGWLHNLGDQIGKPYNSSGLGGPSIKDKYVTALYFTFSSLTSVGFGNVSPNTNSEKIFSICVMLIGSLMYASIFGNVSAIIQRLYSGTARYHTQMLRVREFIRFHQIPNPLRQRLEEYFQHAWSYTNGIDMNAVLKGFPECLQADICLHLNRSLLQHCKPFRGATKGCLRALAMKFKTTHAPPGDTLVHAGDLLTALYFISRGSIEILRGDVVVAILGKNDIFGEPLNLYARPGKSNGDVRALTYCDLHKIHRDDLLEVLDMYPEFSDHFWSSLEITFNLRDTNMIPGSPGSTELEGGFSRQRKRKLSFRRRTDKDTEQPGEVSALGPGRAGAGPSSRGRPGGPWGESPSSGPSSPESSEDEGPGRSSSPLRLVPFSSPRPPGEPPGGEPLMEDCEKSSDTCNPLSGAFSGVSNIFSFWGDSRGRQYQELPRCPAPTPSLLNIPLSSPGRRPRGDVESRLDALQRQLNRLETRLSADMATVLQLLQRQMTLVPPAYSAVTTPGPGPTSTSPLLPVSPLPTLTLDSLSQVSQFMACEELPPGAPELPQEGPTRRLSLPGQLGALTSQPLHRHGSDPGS
Cytochrome P450 2D6, sequence (P10635 whole entry): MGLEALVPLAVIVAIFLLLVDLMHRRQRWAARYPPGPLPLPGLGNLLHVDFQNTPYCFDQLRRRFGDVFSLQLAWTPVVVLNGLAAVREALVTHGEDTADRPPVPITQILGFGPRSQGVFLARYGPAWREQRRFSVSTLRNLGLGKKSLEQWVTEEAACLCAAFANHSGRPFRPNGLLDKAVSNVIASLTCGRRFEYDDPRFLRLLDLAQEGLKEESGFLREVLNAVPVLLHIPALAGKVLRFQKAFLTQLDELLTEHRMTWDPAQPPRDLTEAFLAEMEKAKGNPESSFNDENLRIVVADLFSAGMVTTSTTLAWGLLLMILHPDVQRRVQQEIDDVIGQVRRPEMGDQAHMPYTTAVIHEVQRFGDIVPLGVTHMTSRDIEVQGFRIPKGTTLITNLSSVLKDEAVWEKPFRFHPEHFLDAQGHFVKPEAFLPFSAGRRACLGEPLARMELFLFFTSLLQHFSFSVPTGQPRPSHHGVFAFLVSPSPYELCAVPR

For CC(=O)c1ccc(OCc2ccc(Oc3cc(-c4nn[nH]n4)ccn3)cc2)c(C)c1O, the half-life [1] was 1 h, the Vd [2] was 2 L/kg and the Vd [3] was 2 L/kg. For the same compound, the half-life [4] was 2 h, the Ki [5] was greater than 3.98 µM and the inhibition [6] was 6.4%. It also gave an inhibition [7] of 0.7%, an inhibition [8] of 10.2% and an inhibition (Rattus norvegicus [9]) of -6%. For the same compound, the Ratio [10] was 0.65, the INH (Cytochrome P450 3A4) was greater than 40 µM and the BPR [11] was less than 1%. It also gave an Emax [12] of 107%, a Ki [13] greater than 2.97 µM and a Tmax [14] of 2.5 h. It also gave a Ki [15] greater than 6.9 µM, an IC50 [16] greater than 12.5 µM and a bioavailability [17] of 32%. For the same compound, the inhibition at 1 h (hERG (KCNH2)) was less than 15%, the Ki [18] was greater than 7.47 µM and the inhibition [19] was 5.1%. The Ki [20] was greater than 3.3 µM, the INH (Cytochrome P450 2D6) was greater than 40 µM and the Ki [21] was greater than 7.87 µM. It also gave an EC50 [22] greater than 25 µM, an inhibition (Rattus norvegicus [23]) of 5.2% and an INH (Cytochrome P450 2C9) greater than 40 µM. The clearance [24] was 12 mL/min/kg, the half-life [25] was 8 h and the EC50 [26] was greater than 12.5 µM. It also gave a Cmax [27] of 2540 ng/mL, an EC50 [28] greater than 12.5 µM and a Ki [29] greater than 1.79 µM. For the same compound, the half-life [30] was 2 h, the Ki [31] was greater than 3.02 µM and the Activity (Rattus norvegicus [32]) was “Dose-dependent effect”. For the same compound, the ID100 (Rattus norvegicus [32]) was 1 µg/kg, the inhibition [33] was 22.9% and the inhibition (Rattus norvegicus [34]) was 15.1%. The clearance [35] was 11 mL/min/kg, the bioavailability [36] was 39% and the EC50 [37] was greater than 25 µM. It also gave an EC50 [38] greater than 25 µM.
